# Laboratory results reported in patent US10806717B2, “Methods and compositions for improving cognitive function” (The Johns Hopkins University, priority 2013, dated 2020).
# Columns and labels:
# MAM-treated rats [1] = settings: cited from earlier work
# [2] = system: Memory-impaired aged rats; assay: Water maze probe test after chronic brivaracetam; type: in vivo, rat; settings: brivaracetam 2 mg/kg/day by osmotic mini-pump
# Experimental: The radial arm maze experiments used acute administration of seletracetam (0-4 mg/kg), brivaracetam (0-4 mg/kg), or saline vehicle given by intraperitoneal injection (in a volume of 1 ml/kg) 30-40 min prior to test sessions. In the chronic treatment experiment, memory-impaired aged rats were implanted subcutaneously in the intrascapular region with osmotic mini-pumps (ALZET, Durect Corporation, Cupertino, Calif.) with brivaracetam (2 mg/kg/day) or saline vehicle starting two weeks prior to assessment in the water maze.
# Rats were trained and tested in a novel water maze environment to assess the effect of drug treatment. The water maze used here was housed in a different building and was surrounded by curtains with a novel set of patterns relative to the maze used for initial assessment of cognitive status. The training protocol consisted of 6 trials per day for 2 days to locate a submerged escape platform. On each trial, a rat was released in the maze from one of four equally spaced starting positions around the perimeter of the pool. The starting position varied from trial to trial. […] The rat was then removed from the platform and placed in a holding cage for another 40 s before the next trial. Approximately 24 hr after the last training trial, a probe test in the absence of the escape platform was given to assess spatial memory.
# [3] = system: Memory-impaired aged rats; assay: Radial arm maze task with 2-hr delay, acute brivaracetam or seletracetam; type: in vivo, rat; settings: acute i.p. 0.0625-4 mg/kg, 30-40 min before test; repeated measures ANOVA: brivaracetam p=0.039, seletracetam p=0.009
# MAM-treated rats [4] = settings: rat, in vivo; cited from earlier work
# aged-impaired (AI) rats = assay: Radial Arm Maze task with one-hour delay, levetiracetam and/or valproate; type: in vivo, rat; settings: valproate on its own
# [5] = system: Memory-impaired aged rats; settings: cited from earlier work
compound,measurement,setting,value
C#Cc1ccc2c(c1)C(c1ccccc1F)=N[C@H](C)c1c(C(=O)OCC)ncn1-2 [SH-053-2′F—R—CH3],number of spontaneously active DA neurons in the ventral tegmental area (VTA),"MAM-treated rats [1]; MAM rats, systemic or infused into ventral HPC, to levels of saline-treated rats",reduces
same,increased locomotor response to amphetamine,MAM-treated rats [1]; MAM-treated rats,reduced
same,cortical-evoked responses of HPC neurons,MAM-treated rats [1]; saline-treated and MAM-treated animals,diminished
CCC[C@@H]1CC(=O)N([C@@H](CC)C(N)=O)C1 [brivaracetam],spatial bias for the target quadrant compared to the other quadrants,"[2]; 14 days, n=3/group, t(2)=10.000, p=0.010",significant spatial bias
same,time in the target annulus compared to vehicle-treated rats,"[2]; t(4)=3.109, p=0.036",significantly more time
same,time in the target quadrant compared to vehicle-treated rats,"[2]; t(4)=3.881, p=0.018",significantly more time
same,number of errors in the retention phase after 2-hr delay,[3],significant effect as a function of dose
CC[C@@H](C(N)=O)N1C[C@H](C=C(F)F)CC1=O [seletracetam],number of errors in the retention phase after 2-hr delay,[3],significant effect as a function of dose
NC1=N[C@H](O)[C@H]2[C@H]3O[C@]4(O)O[C@@H]([C@@H](O)[C@@]2(N1)[C@@H]4O)[C@]3(O)CO [tetrodotoxin],augmented amphetamine-induced locomotor behavior,MAM-treated rats [4],normalized
same,elevated DA neuron population activity,MAM-treated rats [4],completely reversed
"CCCC(CCC)C(=O)O [valproate, 2-propylpentanoate]",effective in reducing the number of errors,aged-impaired (AI) rats; 25 mg/kg or 50 mg/kg subcutaneous,not
same,effective in reducing the number of errors,aged-impaired (AI) rats; 100 mg/kg subcutaneous,effective
same,treatment of cognitive impairment,"[5]; 50 mg/kg/day, chronic subcutaneous administration",not effective
same,performance in a memory test,"[5]; 100 mg/kg/day, chronic subcutaneous administration",significantly improved
same,blood total valproate level,"[5]; rat, in vivo",10 μg/ml plasma
